From patent publication US10835548B2, “Metronomic oral gemcitabine for cancer therapy” (priority 2016, dated 2020)
Read-outs that look alike come from different tables or passages of the source.

How the values were obtained:
[1] = test system: CFPAC-1 pancreatic cancer xenografts; test: 5FU injection followed by GEMORAL in CFPAC-1 xenografted mouse model; type: in vivo, BALB/c nude mice
Description: Pancreatic cancer monotherapy using 5-fluorouracil (5FU) injection is known. […] We investigated oral metronomic GEM administration as a second-line treatment in 5FU-non-responsive pancreatic tumors using a xenograft model. To prepare the xenografted mice used in the study, 1×10^6 human CFPAC-1 pancreatic cancer cells were transplanted subcutaneously on the right flank of 6 week old male BALB/c nude mice. Tumor growth was observed once a week, tumor volume was measured as L×W^2/2 by caliper, and mice were selected for inclusion in the study when their tumor volume reached about 131 cubic millimeters. […] The day on which mice were first dosed was designated “Day 0” of the study, and the study continued for 112 days. Mice of Group 1 were orally administered 10 mg/kg GEMORAL every other day (i.e., Q2D×56), beginning on day 0 of the study and extending through the end of the study. […] Beginning on day 63 of the study, the mice were orally administered 10 mg/kg GEMORAL every other day (i.e., Q2D×25) through the end of the study. […] Beginning on day 21 of the study, the mice were orally administered 10 mg/kg GEMORAL every other day (i.e., Q2D×46) through the end of the study. […] They were intraperitoneally injected with saline on days 0, 3, 6, and 9 of the study (i.e., Q3D×4). […]

[2] = MTD of GEM intravenous infusion regime in human cancer patients (Fossella et al.); type: in vivo
Description: For GEM, others have determined MTD values for human cancer patients. For example, Fossella et al. (1997, J. Clin. Oncol. 15:310-316) estimated an MTD of 2,400 mg/m^2/week for a GEM intravenous infusion regime regime (2,400 mg/m^2 corresponding to 3,893 mg/60 kg for a human patient, equal to 64.988 mg/kg). Labeling for a commercial GEM product, marketed under the brand name GEMZAR (Eli Lilly and Co.) recommends an intravenous dosage of 1,000 or 1,250 mg/m^2. In details, GEMZAR dosage administration is conducted at a dose of 1,000 mg/m^2, corresponding to 1,622 mg/60 kg for a human patient, equal to 27.03 mg/kg, administered on Days 1 and 8 or Days 1, 8, and 15 of a 21-day cycle, or at a dose of 1,250 mg/m^2, corresponding to 2,027 mg/60 kg for a human patient, equal to 33.878 mg/kg, administered on Days 1, 8, and 15 of a 28-day cycle.

[3] = intravenous infusion, human cancer patients; cited from earlier work
[4] = test system: HuCCT1 cholangiocarcinoma xenografts; test: Xenografted mouse model of human cholangiocarcinoma cell line HuCCT1; type: in vivo, BALB/c nude mice; details: Group 1: GEM 60 mg/kg i.p. Q3D×4
Description: Example 3 is a study in which the effects of GEM upon mice into which cells of human cholangiocarcinoma cell line HuCCT1 were xenografted. The xenografted mice were then treated with one of five treatment regimens and the results observed over the study period of 90 days.
To prepare the xenografted mice used in the study, 1×10^6 HuCCT1 human cholangiocarcinoma cells were transplanted subcutaneously on the right flank of 6 week old male BALB/c nude mice. Tumor growth was observed once a week and the tumor volume was measured as L×W^2/2 by caliper. Tumor development in the xenografted mice was then observed, and 40 such mice were selected for inclusion in the study when their tumor volume reached about 124 cubic millimeters. The mice were divided into 5 groups of 8 mice each for the study. The day on which mice were first dosed was designated “Day 0” of the study, and the study continued for 90 days.
Mice of Group 1 were intraperitoneally injected with 60 mg/kg of GEM on days 0, 3, 6, and 9 of the study (i.e., Q3D×4) and were not further treated thereafter.
Mice of Group 2 were intraperitoneally injected with 60 mg/kg of GEM on days 0, 3, 6, and 9 of the study (i.e., Q3D×4). Beginning on day 13 of the study, the mice were orally administered 10 mg/kg GEM in the GEMORAL composition (hereinafter “10 mg/kg GEMORAL”) every other day (i.e., Q2D×40) through the end of the study.
Mice of Group 3 were intraperitoneally injected with 60 mg/kg of GEM on days 0, 3, 6, and 9 of the study (i.e., Q3D×4). Also beginning on day 1 of the study, the mice were orally administered 10 mg/kg GEMORAL every other day (i.e., Q2D×46) through the end of the study.
Mice of Group 4 were orally administered 10 mg/kg GEMORAL every other day (i.e., Q2D×46), beginning on day 1 of the study and extending through the end of the study.
(§1) Mice of Group 5 were controls and were not administered GEM. They were intraperitoneally injected with saline on days 0, 3, 6, and 9 of the study (i.e., Q3D×4). Beginning on day 13 of the study, the mice were orally administered distilled, deionized water every other day (i.e., Q2D×40) through the end of the study.
The study was continued until day 90 and body weight losses among the mice of the various Groups were observed. In Group 3, all mice lost over 20% body weight by day 12.
Values reflecting anti-tumor responses, as compared with vehicle treatment (T/C %) on different study days are indicated in Table 2. […] It is noteworthy that by day 12 the cumulative dose of GEM for Group 4 was only about 25% that of Group 1.

[5] = test system: CFPAC-1 pancreatic cancer xenografts; test: Xenografted mouse model of human pancreatic cancer cell line CFPAC-1; type: in vivo, BALB/c nude mice; details: Group 1: GEM 120 mg/kg i.p. Q3D×23
Description: Example 4 is a study in which the effects of GEM upon mice into which cells of human pancreatic cancer cell line CFPAC-1 were xenografted.
To prepare the xenografted mice used in the study, 1×10^6 human CFPAC-1 pancreatic cancer cells were transplanted subcutaneously on the right flank of 6 week old male BALB/c nude mice. Tumor growth was observed once a week and the tumor volume was measured as L×W^2/2 by caliper. Tumor development in the xenografted mice was then observed, and 48 such mice were selected for inclusion in the study when their tumor volume reached about 141 cubic millimeters. The mice were divided into 6 groups of 8 mice each for the study. The day on which mice were first dosed was designated “Day 0” of the study, and the study continued for 91 days.
Mice of Group 1 were intraperitoneally injected with 120 mg/kg of GEM on day 0 and every third day thereafter through day 66 (i.e., Q3D×23) and were not further treated thereafter.
Mice of Group 2 were intraperitoneally injected with 120 mg/kg of GEM on days 0, 3, 6, and 9 of the study (i.e., Q3D×4). Beginning on day 12 of the study, the mice were orally administered 10 mg/kg GEM in the GEMORAL composition (hereinafter “10 mg/kg GEMORAL”) every other day (i.e., Q2D×28) through day 66; the mice were not further treated thereafter.
Mice of Group 3 were intraperitoneally injected with 120 mg/kg of GEM on days 0, 3, 6, and 9 of the study (i.e., Q3D×4). Beginning on day 12 of the study, the mice were orally administered 3 mg/kg GEM in the GEMORAL composition (hereinafter “3 mg/kg GEMORAL”) every day (i.e., QD×55) through day 66; the mice were not further treated thereafter.
Mice of Group 4 were orally administered 3 mg/kg GEMORAL every day (i.e., QD×92), beginning on day 0 of the study and extending through the end of the study.
Mice of Group 5 were orally administered 10 mg/kg GEMORAL every other day (i.e., Q2D×46), beginning on day 0 of the study and extending through the end of the study.
Mice of Group 6 were controls and were not administered GEM. […]

[6] = test system: patient-derived human cholangiocarcinoma xenografts; test: Xenografted mouse model of patient-derived human cholangiocarcinoma; type: in vivo; details: Group 1: GEM 60 mg/kg i.p. Q3D×4
Description: This example describes a study in which the effects of gemcitabine upon mice into which portions of a human patient-derived cholangiocarcinoma were xenografted. The xenografted mice were then treated with one of five treatment regimens and the results observed.
To prepare the xenografted mice used in the study, primary human cholangiocarcinoma fragments obtained from human patients were injected into “stock” male BALB/c nude mice. Subsequently, tumor fragments (roughly 2-3 millimeters in diameter) were harvested from the “stock” mice and inoculated subcutaneously into the right flank of other male BALB/c nude mice. Tumor development in the inoculated mice was then observed, and 40 such mice were selected for inclusion in the study when their tumor volume reached about 180 cubic millimeters (volume was assessed by multiplying tumor length by ½ (tumor width squared) (i.e., L×W^2/2), length and width being measured using a caliper). The mice were divided into 5 groups of 8 mice each for the study, all mice in each group having tumors of approximately equal size. The day on which mice were first dosed was designated “Day 1” of the study, and the study continued for 76 days. The mice were divided into Groups 1, 2, 3, 4, and 5. Mice of each group were treated identically.
Mice of Group 1 were intraperitoneally injected with 60 mg/kg of GEM on days 1, 4, 7, and 10 of the study (i.e., Q3D×4) and were not further treated thereafter. […]
as §1, with “1, 4, 7,” for “0, 3, 6,”, “10” for “9”, “Q2D×32)” for “Q2D×40)”
The study was continued until day 76 and the body weight losses among the mice of the various Groups were observed. […] For Group 3, 6 of 8 mice were dead by day 10.
Values reflecting anti-tumor responses, as compared with vehicle treatment (T/C %, calculated as the ratio of average tumor volume in treatment group vs. average tumor volume in the control group {Group 5}, expressed as a percentage) on different study days are indicated in Table 1.

In the case of O=c1[nH]cc(F)c(=O)[nH]1 [5FU, 5-fluorouracil], the “anti-tumor response attributable to 5FU treatment” value ([1]; Group 2: 5FU 20 mg/kg i.p. thrice weekly, first 9 weeks) is reported as “No significant anti-tumor response” and the “anti-tumor response attributable to 5FU treatment” value ([1]; Group 3: 5FU 20 mg/kg i.p. thrice weekly, first 3 weeks) is reported as “No significant anti-tumor response”.

In the case of Nc1ccn([C@@H]2O[C@H](CO)[C@@H](O)C2(F)F)c(=O)n1 [GEM, gemcitabine], the “MTD (corresponding dose for a human patient)” value ([2]; converted from 2,400 mg/m^2) is listed as 3,893 mg/60 kg, the MTD ([2]; human, in vivo, converted from 2,400 mg/m^2, read-out: MTD (corresponding dose per body weight)) is listed as 65 mg/kg and the MTD [3] is listed as 2,400 mg/m^2/week. It also gave a T/C ([4]; Day 12) of 54%, a T/C ([4]; Day 37) of 60% and a T/C ([4]; Day 58) of 93%. For the same molecule, the T/C ([4]; Day 76) was 96%, the T/C ([4]; Day 90) was 82% and the “mean survival time (MST)” value [4] was 69 days. The survival rate ([4]; day 90, Kaplan-Maier) was 50%, the “maximum tumor growth inhibition value” ([4]; on day 27) was 47% and the “days at which at least some mice were tumor free” value [5] was 44 to 91 days. For the same molecule, the mice tumor free ([5]; at day 91) was 6/8, the “maximum anti-tumor response, T/C” value ([5]; on day 81) was 0% and the T/C ([6]; Day 14) was 52%. The T/C ([6]; Day 42) was 22%, the T/C ([6]; Day 73) was 46% and the T/C ([6]; Day 76) was 49%. The “tumor growth after end of dosing” value ([6]; after day 11) was “significant tumor growth after completing the scheduled dosing” and the “mice dead (died or tumor size >1000 cubic millimeters)” value ([6]; by day 76) was 4 of 8.
